Assay results reported in patent US4720497A, “6-purinyl N-/2-chloroethyl/carbamate and thiocarbamate and process for the preparation thereof” (SPOFA, Spojene Podniky pro Zdravotnickou Vyrobu, priority 1984, dated 1988).
Entries after “also recorded” stand apart in the source; their conditions may differ. Where two headings read alike, the source gives them in different places.

How the values were obtained:
Ehrlich Carcinoma cells = assay: Cytotoxicity in vitro: 14C precursor incorporation in Ehrlich Carcinoma cells (Example 10); type: cell-based; conditions: for IC50: Ehrlich, read-out: ID50 (14C incorporation)
Excerpt: (§1) The antineoplastic activity of the compounds of the invention has been investigated by testing the compounds of the chemical group "in vivo" against experimental rodent tumors such as Crocker's sarcoma (S180), solid-type Ehrlich carcinoma (STE), kreb's ascites tumor (Kr2), all maintained in mice H, Gardner lymphosarcoma (LsG, C3H mice), P388 and L1210 leukemias (DBA2 mice), Zajdela ascites hapatoma (ZAH, Wistar rats), Yoshida ascites reticulosarcoma (Y, Wistar rats) and B16 melanoma (C57B16 mice) in experiments according to Jelinek, V. (Neoplasma 12, 469 (1969); ibid. 7, 146 (1960) and "in vitro" experiments using radioactive precursors of nucleic acids and proteins according to Miko, M. et al. (Cancer Res. 39, 4242 (1979); Neoplasma 26, 449 (1979); ibid. 16, 161--1969) with minor modifications (Mattern J.: Studies on the Drug Sensitivity of Short Term Cultured Tumor Cell Suspensions. In "Human Tumors in Short Term Culture" (Dendy, P. P. ed.), p. 301, Academic Press 1976). Therapeutic synergism has been studied by the method of Carter, W. H. et al. (cf. Cancer Res. 42, 2963--1982).
The degree of influence on the incorporation of ^14 C from adenine-^14 C and valine-^14 C to the fraction of Ehrlich Carcinoma cells insoluble in trichloroacetic acid serves as the measure of cytotoxicity. The value ID50 is the concentration of a cytostatic that reduces the ^14 C incorporation down to 50% of the non-influencedcontrol cells.

Zajdel ascitic hepatoma [1] = assay: Survival of rats with implanted Zajdel ascitic hepatoma, comparison with 6-mercaptopurine (Example 8); type: in vivo, female Wistar rats; conditions: for Period of survival (% of control): Wistar rats; for antitumor effect / average period of survival vs non-treated control: in words (Example 8)
Excerpt: as §1
(§2) Fifty infantile female Wistar rats weighing approximately 60 g are divided into five groups: one control and four experimental ones, 10 animals each. A lethal dose of the tumor ascites from Zajdel ascitic hepatoma is implanted intraperitoneally in all the animals. The experimental groups are treated with the substance Ia in water suspension. The suspension contains the substance Ia in such an amount that a dose of 0.4 or 0.2 ml of the suspension p.o. is equal to a dose of 200 or 100 mg Ia/Kg. This dose is applied to the experimental animals once a day, five times altogether, starting on the first day after the implantation.

Yoshida tumor [2] = assay: Survival of rats with implanted Yoshida tumor (Example 7); type: in vivo, female Wistar rats; conditions: Wistar rats
Excerpt: as §1
(§3) Additionally, the compounds of the present invention are useful in increasing survival time of the suitable biological subjects, namely mice and rats bearing tumors STE, ZAH and/or Y: because of the lethal nature of the test system employed, the antitumor effect of the compounds is illustrated by a side comparison of the survival time of treated animals (survival for a longer time) with the untreated control groups of animals (cf. Examples 5, 6, and 7). In these typical experiments, ten animals are in the experimental groups, and the treated groups of animals survive for a longer time than the untreated controls.
as §2

[3] = tested on: Yoshida ascitic tumor cells; assay: Cytotoxicity in vitro: initial velocity of 3H/14C precursor incorporation in Yoshida ascitic tumor cells (Example 11); type: cell-based; conditions: for IC50: Rattus norvegicus, YOSHIDA
Excerpt: as §1
(§4) In analogous experiments, the degree of influence on the initial velocity of the incorporation of ^3 H from 5-iodo-2'-deoxy-(6-^3 H)uridine or that of ^14 C from a mixture of L-(U-^14 C)-aminoacids to the fraction of Yoshida ascitic tumor cells insoluble in trichloroacetic acid serves as the measure of cytotoxicity. The value IC50 is the concentration of a substance that reduces the initial velocity of the ^3 H or ^14 C incorporation down to 50% of the noninfluenced control cells.

Yoshida tumor [4] = assay: Survival of rats with implanted Yoshida tumor (Example 6); type: in vivo, female Wistar rats; conditions: Wistar rats
Excerpt: as §1, §3, §2

Yoshida ascitic sarcoma = assay: Therapeutic synergism with Benfluron, survival of rats with Yoshida ascitic sarcoma (Example 9); type: in vivo, female Wistar rats; conditions: for Average period of survival (days): geometric average (fiducial limits P=0.95)
Excerpt: as §1
One hundred and twenty seven infantile female Wistar rats weighing 50-60 g are divided into sixteen groups: one control group of 25 animals and fifteen experimental groups of 6 to 7 animals. A lethal dose of the tumor ascites from Yoshida ascitic sarcoma is implanted intraperitoneally in all the animals. The experimental groups are treated with the substance Ia in water suspension, water solution of a cytostatic Benfluron (CAS 80427-58-3), or a combination of both the substances. The suspension or solution contains the substances in such a concentration that doses of 0.4 or 0.2 and 0.1 ml of the suspension/solution p.o. are equal to doses of 200 or 100 and 50 mg Ia/kg or to doses of 160, 80 or 40 mg of Benfluron/kg. Doses of the substance Ia are administered to the experimental animals once a day, four times altogether, starting on the first day after the tumor implantation. Benfluron is administered only once, on the fourth day after the tumor implantation, 7 hours after the last dose of the substance Ia.

[5] = literature; cited from earlier work
tumor cells = assay: Comparison of cytotoxicity of Ia and Ib in vitro, precursor incorporation (Example 12); type: cell-based
Excerpt: as §1, §4
In analogous experiments, the following values of IC50 were determined: […]

[6] = Toxicity and tolerability by oral route; type: in vivo, small rodents; rat; mouse; man
Excerpt: The compounds described herein can be administered to suitable biological subjects, particularly mammals, for their therapeutic antitumor effects, by conventional modes of administration alone, but preferably as active ingredients with any conventional suitable non-toxic pharmaceutical carrier, dissolved or suspended, for example, in water, saline, polyethylene or polypropylene alcohols, etc. The administration is preferably by the oral route. […]. The dosage administered will be dependent upon the type of tumor for which treatment is desired, the type of biological subject involved, weight, body surface, localization of the tumor, its morphological type, the frequency of treatment, individual tolerance and responsiveness of each subject, etc; for example, by oral route, the prolonged administration of 100, 200 mg/kg daily appears to be well tolerated both in the rat and in the mouse. The assessment drawn from the biological tests is that doses of 20 mg/kg (e.g. about 740 mg/m^2) may be regarded as well tolerated in man.

Zajdel ascitic hepatoma [7] = assay: Survival of rats with implanted Zajdel ascitic hepatoma (Example 5); type: in vivo, female Wistar rats; conditions: Wistar rats
Excerpt: as §1, with “2963--1982). […]” for “2963--1982).”

Crocker tumor (S180) = assay: Antitumor activity against Crocker tumor (S180) in mice, tumor weight (Example 3); type: in vivo, female mice H; conditions: S180, mice H, p.o. 200 or 100 mg/kg once a day, eight times; day 14
Excerpt: as §1
Sixty female mice H weighing approximately 20 g are divided into three groups: one control group and two experimental groups of 20 animals each. A lethal dose of the Crocker tumor (S180) homogenate is implanted subcutaneously in all the animals. […]

Ehrlich tumor (STE) = assay: Antitumor activity against implanted Ehrlich tumor (STE) in mice, tumor weight (Example 4); type: in vivo, female mice H; conditions: mice H
Excerpt: as §1
Sixty female mice H weighing approximately 20 g are divided into three groups: one control group and two experimental groups of 20 animals each. A lethal dose of the Crocker tumor (S180) homogenate is implanted subcutaneously in all the animals. The experimental groups are treated with the substance Ia in water suspension. The suspension contains the substance Ia in such an amount that a dose 0.4 or 0.2 ml of the suspension p.o. is equal to a dose 200 or 100 mg Ia/kg. This dose is administered to the experimental animals once a day, eight times altogether, starting on the fifth day after the implantation. On the fourteenth day after the implantation, a half of the animals in each group is sacrificed in ether anaesthesia, and tumors are removed and weighed. The remaining animals are left to monitor the time of death.

[8] = precursor 5-iodo-2'-deoxy(6-3H)uridine, read-out: IC50 (initial velocity of 3H incorporation)
[9] = precursor L-(U-14C)aminoacids, read-out: IC50 (initial velocity of 14C incorporation)
[10] = precursor 5-iodo-2'-deoxy(6-3H)uridine (Example 12)
[11] = precursor L-(U-14C)aminoacids (Example 12)

## Nc1nc(S)c2[nH]cnc2n1 [2-amino-6-mercaptopurine, 2-Amino-6-mercaptopurine, reference compound]
Ehrlich Carcinoma cells; precursor adenine-14C
  IC50: > 600 µM
Ehrlich Carcinoma cells; precursor valine-14C
  IC50: > 600 µM

## Sc1ncnc2nc[nH]c12 [6-mercaptopurine, reference compound]
Zajdel ascitic hepatoma [1]; p.o. 5 × 20 mg/kg (Example 8)
  Period of survival (% of control): 101 % of control
Zajdel ascitic hepatoma [1]; p.o. 5 × 40 mg/kg (Example 8)
  Period of survival (% of control): 105 % of control
Zajdel ascitic hepatoma [1]
  antitumor effect / average period of survival vs non-treated control: ineffective; also recorded: inactive
Yoshida tumor [2]; p.o. 5 × 20 mg/kg (Example 7)
  Period of survival (% of control): 107 % of control
Yoshida tumor [2]; p.o. 5 × 40 mg/kg (Example 7)
  Period of survival (% of control): 156 % of control
[3]; [8]
  IC50: > 10000 µM
[3]; [9]
  IC50: > 229 µM
Yoshida tumor [4]; p.o. 5 × 20 mg/kg (Example 6)
  Period of survival (% of control): 109 % of control
Yoshida tumor [4]; p.o. 5 × 40 mg/kg (Example 6)
  Period of survival (% of control): 127 % of control

## CN(C)CCOc1cc2c(c3ccccc13)-c1ccccc1C2=O.Cl [Benfluron, 5-[2-(N, N-Dimethylamino)ethoxy]-7-oxo-7H-benzo(c)fluorene hydrochloride, reference compound]
Yoshida ascitic sarcoma; Benfluron 40 mg/kg p.o. once
  Average period of survival (% of control): 104 % of control
  Average period of survival (days): 7.67 (6.9; 8.6) days
Yoshida ascitic sarcoma; Benfluron 80 mg/kg p.o. once
  Average period of survival (% of control): 104 % of control
  Average period of survival (days): 7.61 (6.5; 8.9) days
Yoshida ascitic sarcoma; Benfluron 160 mg/kg p.o. once
  Average period of survival (% of control): 106 % of control
  Average period of survival (days): 7.79 (6.9; 8.8) days

## Nc1ncnc2c1ncn2C(=O)NCCCl [N-(2-chloroethyl)-6-aminopurine-9-carboxamide]
[5]
  biological activity: did not exhibit any biological activity

## CCN(CC)C(=O)Nc1ncnc2nc[nH]c12 [N-(6-purinyl)-N', N'-diethylurea]
[5]
  antineoplastic action: weak antineoplastic action

## O=C(NCCCl)Sc1ncnc2nc[nH]c12 [Substance Ia, 6-[N-(2-Chloroethyl)carbamoyl]thiopurine]
Tumor cells; [10]
  IC50: 39 µM
Tumor cells; [11]
  IC50: 62 µM
[6]; in vivo, small rodents, oral route
  LD50: ≥ 3000 mg/kg
[6]; in words
  toxicity: practically non-toxic
Zajdel ascitic hepatoma [1]; p.o. 5 × 100 mg/kg (Example 8)
  Period of survival (% of control): 120 % of control
Zajdel ascitic hepatoma [1]; p.o. 5 × 200 mg/kg (Example 8)
  Period of survival (% of control): 128 % of control
Zajdel ascitic hepatoma [1]
  antitumor effect / average period of survival vs non-treated control: statistically significantly higher average period of survival
Zajdel ascitic hepatoma [7]; p.o. 5 × 100 mg/kg
  Period of survival (% of control): 117 % of control
Zajdel ascitic hepatoma [7]; p.o. 5 × 200 mg/kg
  Period of survival (% of control): 126 % of control
Crocker tumor (S180)
  average values of the tumor weight vs non-treated control: Statistically significantly lower average values of the tumor weight
Yoshida tumor [2]; p.o. 5 × 100 mg/kg (Example 7)
  Period of survival (% of control): 124 % of control
Yoshida tumor [2]; p.o. 5 × 200 mg/kg (Example 7)
  Period of survival (% of control): 158 % of control
Ehrlich tumor (STE); p.o. 8 × 100 mg/kg
  Tumor weight (% of control): 80 % of control
Ehrlich tumor (STE); p.o. 8 × 200 mg/kg
  Tumor weight (% of control): 70 % of control
[3]; [8]
  IC50: 25 µM
[3]; [9]
  IC50: 26 µM
[3]; Yoshida ascites tumor cells, in words
  effectiveness vs thioguanine and/or 6-mercaptopurine: more effective
Yoshida ascitic sarcoma; Ia 4 × 50 mg/kg p.o.
  Average period of survival (% of control): 125 % of control
  Average period of survival (days): 9.20 (7.6; 11.1) days
Yoshida ascitic sarcoma; Ia 4 × 100 mg/kg p.o.
  Average period of survival (% of control): 149 % of control
  Average period of survival (days): 10.94 (9.0; 13.3) days
Yoshida ascitic sarcoma; Ia 4 × 200 mg/kg p.o.
  Average period of survival (% of control): 121 % of control
  Average period of survival (days): 8.86 (7.4; 10.7) days
Yoshida ascitic sarcoma; Yoshida ascitic sarcoma, in words, over 29 days
  survival vs control group: survive longer
Ehrlich Carcinoma cells; Ehrlich ascites carcinoma cells, in words
  effectiveness vs thioguanine and/or 6-mercaptopurine: more effective
Ehrlich Carcinoma cells; precursor adenine-14C
  IC50: 94 µM
Ehrlich Carcinoma cells; precursor valine-14C
  IC50: 155 µM
Yoshida tumor [4]; p.o. 5 × 100 mg/kg (Example 6)
  Period of survival (% of control): 134 % of control
Yoshida tumor [4]; p.o. 5 × 200 mg/kg (Example 6)
  Period of survival (% of control): 127 % of control

## O=C(NCCCl)Oc1ncnc2nc[nH]c12 [Substance Ib, 6-[N-(2-Chloroethyl)carbamoyl]oxypurine]
Tumor cells; [10]
  IC50: 55 µM
Tumor cells; [11]
  IC50: 80 µM
Ehrlich tumor (STE); p.o. 8 × 100 mg/kg
  Tumor weight (% of control): 76 % of control
Ehrlich tumor (STE); p.o. 8 × 200 mg/kg
  Tumor weight (% of control): 81 % of control
Yoshida tumor [4]; p.o. 5 × 100 mg/kg (Example 6)
  Period of survival (% of control): 100 % of control
Yoshida tumor [4]; p.o. 5 × 200 mg/kg (Example 6)
  Period of survival (% of control): 83 % of control
